Measurements reported in BindingDB's records for doi:10.1124/jpet.102.040162 (Sanofi-SynthÉLabo Recherche, 2002).
“And” between values parts separate entries of the source, which are not always exact repeats. Identical values can stand only once. Square brackets hold non-standard residues; d marks the D form. Peptide text beside a SMILES is read from it. NMeF = CN[C@@H](Cc1ccccc1)C(=O)O

Key:
[1] = target: T1, Substance-K receptor (Cavia porcellus, UniProt Q64077)
T1 sequence (Q64077 whole entry): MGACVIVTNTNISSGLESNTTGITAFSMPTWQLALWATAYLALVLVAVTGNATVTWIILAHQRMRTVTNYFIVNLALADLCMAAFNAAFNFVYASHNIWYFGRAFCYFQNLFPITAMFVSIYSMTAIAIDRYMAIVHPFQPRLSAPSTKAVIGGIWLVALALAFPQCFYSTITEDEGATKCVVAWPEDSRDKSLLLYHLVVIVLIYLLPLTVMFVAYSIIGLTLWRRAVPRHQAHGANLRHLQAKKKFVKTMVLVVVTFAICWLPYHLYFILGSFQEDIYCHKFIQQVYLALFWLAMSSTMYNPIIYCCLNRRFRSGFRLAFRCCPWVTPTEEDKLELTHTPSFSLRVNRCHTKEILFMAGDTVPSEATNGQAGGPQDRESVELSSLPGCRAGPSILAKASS

[2] = target: T2, Neuromedin-K receptor (Meriones unguiculatus, UniProt Q2YHR0)
T2 sequence (Q2YHR0 whole entry): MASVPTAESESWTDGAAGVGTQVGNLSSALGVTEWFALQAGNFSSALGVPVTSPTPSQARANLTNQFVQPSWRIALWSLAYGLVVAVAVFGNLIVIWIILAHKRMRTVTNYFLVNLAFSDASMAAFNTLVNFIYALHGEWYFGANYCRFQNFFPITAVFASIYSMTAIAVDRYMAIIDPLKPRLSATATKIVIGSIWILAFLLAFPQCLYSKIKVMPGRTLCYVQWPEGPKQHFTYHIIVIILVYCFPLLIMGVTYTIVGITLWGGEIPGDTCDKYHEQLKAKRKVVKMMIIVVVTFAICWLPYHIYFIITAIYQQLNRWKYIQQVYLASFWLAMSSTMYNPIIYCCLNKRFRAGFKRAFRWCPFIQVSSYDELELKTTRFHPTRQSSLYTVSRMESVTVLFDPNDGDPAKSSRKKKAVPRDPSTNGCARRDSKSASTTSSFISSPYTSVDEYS

[3] = target: T3, Neuromedin-K receptor (Homo sapiens, UniProt P29371)
T3 sequence (P29371 whole entry): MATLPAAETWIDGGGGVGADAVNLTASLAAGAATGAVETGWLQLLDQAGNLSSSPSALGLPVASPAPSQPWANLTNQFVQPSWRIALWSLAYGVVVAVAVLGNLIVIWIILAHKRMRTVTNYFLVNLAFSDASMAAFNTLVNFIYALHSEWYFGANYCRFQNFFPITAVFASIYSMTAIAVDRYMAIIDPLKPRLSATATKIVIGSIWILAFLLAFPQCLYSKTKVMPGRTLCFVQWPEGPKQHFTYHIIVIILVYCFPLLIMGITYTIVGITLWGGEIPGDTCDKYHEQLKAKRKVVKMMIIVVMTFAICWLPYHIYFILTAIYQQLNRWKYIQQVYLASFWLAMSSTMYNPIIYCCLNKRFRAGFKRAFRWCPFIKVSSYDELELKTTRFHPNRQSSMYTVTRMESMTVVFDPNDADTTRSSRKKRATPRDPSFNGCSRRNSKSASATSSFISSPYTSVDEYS

[4] = target: T4, Neuromedin-K receptor (Mus musculus, UniProt P47937)
T4 sequence (P47937 whole entry): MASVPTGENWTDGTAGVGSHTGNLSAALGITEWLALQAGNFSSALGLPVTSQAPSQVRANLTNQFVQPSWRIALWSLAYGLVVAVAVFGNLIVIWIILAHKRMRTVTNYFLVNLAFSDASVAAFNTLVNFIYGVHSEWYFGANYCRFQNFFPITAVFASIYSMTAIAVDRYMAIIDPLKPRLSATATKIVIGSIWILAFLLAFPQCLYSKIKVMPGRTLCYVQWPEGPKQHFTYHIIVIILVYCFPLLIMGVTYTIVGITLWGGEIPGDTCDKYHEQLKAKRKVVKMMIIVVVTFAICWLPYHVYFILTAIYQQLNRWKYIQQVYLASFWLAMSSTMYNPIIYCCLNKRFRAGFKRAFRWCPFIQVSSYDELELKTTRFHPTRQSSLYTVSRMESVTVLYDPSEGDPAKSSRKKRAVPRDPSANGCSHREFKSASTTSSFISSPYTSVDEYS

[5] = target: T5, Neuromedin-K receptor (Cavia porcellus, UniProt P30098)
T5 sequence (P30098 whole entry): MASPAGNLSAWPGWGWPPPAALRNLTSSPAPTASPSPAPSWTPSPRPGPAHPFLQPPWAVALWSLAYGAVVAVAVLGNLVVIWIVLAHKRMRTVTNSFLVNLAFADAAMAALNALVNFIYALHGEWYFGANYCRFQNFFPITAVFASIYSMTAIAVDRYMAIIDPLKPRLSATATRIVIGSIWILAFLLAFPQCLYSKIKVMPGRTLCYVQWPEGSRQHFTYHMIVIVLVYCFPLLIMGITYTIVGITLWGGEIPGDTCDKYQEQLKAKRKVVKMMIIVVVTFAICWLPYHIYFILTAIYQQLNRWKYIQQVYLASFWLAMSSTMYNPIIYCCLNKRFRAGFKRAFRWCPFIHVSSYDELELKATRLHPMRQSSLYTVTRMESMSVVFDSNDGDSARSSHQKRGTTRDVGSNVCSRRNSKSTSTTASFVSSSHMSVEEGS

[6] = target: Substance-P receptor (Rattus norvegicus, UniProt P14600)
[7] = target: T6, Substance-K receptor (Homo sapiens, UniProt P21452)
T6 sequence (P21452 whole entry): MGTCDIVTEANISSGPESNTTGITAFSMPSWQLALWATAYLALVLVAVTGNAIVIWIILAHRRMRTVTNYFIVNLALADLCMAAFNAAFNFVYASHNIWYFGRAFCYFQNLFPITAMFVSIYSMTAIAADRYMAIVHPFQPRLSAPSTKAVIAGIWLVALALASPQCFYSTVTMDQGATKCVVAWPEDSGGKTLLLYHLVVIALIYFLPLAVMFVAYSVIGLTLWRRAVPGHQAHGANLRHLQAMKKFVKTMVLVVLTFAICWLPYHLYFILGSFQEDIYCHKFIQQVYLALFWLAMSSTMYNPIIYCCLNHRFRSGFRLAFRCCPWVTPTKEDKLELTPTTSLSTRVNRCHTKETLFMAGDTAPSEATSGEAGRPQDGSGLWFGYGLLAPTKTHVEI

[8] = target: Substance-P receptor (Cavia porcellus, UniProt P30547)
[9] = target: T7, Substance-K receptor (Rattus norvegicus, UniProt P16610)
T7 sequence (P16610 whole entry): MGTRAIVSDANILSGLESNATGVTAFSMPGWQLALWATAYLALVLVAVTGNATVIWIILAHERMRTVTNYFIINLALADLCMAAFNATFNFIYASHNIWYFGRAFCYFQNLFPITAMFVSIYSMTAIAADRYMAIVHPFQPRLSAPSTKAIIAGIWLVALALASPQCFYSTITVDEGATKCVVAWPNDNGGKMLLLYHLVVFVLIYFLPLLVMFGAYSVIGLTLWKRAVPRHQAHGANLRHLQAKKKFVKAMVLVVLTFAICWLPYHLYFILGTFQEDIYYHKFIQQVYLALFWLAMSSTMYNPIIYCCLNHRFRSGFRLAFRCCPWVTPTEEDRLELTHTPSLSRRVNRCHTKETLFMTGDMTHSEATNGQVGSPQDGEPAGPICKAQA

Sequence of Substance-P receptor (Rattus norvegicus, UniProt P14600) (P14600 whole entry): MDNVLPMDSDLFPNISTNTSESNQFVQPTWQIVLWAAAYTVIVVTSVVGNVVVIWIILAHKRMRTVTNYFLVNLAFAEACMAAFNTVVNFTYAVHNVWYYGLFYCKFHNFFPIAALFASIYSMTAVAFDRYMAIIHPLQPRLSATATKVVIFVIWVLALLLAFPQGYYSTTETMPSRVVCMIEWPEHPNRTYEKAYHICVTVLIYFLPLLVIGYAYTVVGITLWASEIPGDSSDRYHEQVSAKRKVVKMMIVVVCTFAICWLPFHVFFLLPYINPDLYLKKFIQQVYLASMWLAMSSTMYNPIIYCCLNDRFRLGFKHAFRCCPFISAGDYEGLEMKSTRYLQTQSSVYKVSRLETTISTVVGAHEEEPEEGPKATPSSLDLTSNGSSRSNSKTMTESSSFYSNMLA
Sequence of Substance-P receptor (Cavia porcellus, UniProt P30547) (P30547 whole entry): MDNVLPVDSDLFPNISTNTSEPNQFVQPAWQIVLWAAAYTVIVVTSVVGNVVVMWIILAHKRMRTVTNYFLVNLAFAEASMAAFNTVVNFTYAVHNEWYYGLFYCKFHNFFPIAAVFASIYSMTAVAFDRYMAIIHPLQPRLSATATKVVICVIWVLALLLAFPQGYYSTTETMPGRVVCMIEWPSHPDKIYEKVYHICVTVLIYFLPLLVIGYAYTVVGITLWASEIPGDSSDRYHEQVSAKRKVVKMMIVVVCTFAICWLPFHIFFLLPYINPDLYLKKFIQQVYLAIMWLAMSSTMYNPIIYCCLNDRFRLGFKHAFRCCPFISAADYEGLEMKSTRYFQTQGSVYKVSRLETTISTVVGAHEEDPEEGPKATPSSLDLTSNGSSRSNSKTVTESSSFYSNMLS

Structure (SMILES) | Ki [1] [nM] | Ki [2] [nM] | Ki [3] [nM] | Ki [4] [nM] | Ki [5] [nM] | Ki [6] | Ki [7] [nM] | Ki [8] [nM] | Ki [9] [nM]
CSCC[C@H](NC(=O)[C@H](CC(C)C)NC(=O)CNC(=O)[C@@H](NC(=O)[C@H](Cc1ccccc1)NC(=O)[C@H](CO)NC(=O)[C@H](CC(=O)O)NC(=O)[C@@H](NC(=O)[C@H](CCCCN)NC(=O)[C@@H](N)Cc1cnc[nH]1)[C@@H](C)O)C(C)C)C(N)=O [Neurokinin alpha] | 2.3 |  |  |  |  |  |  |  | 
CSCC[C@H](NC(=O)[C@H](CC(C)C)NC(=O)CNC(=O)[C@H](Cc1ccccc1)N(C)C(=O)[C@H](Cc1ccccc1)NC(=O)[C@H](Cc1ccccc1)NC(=O)[C@H](CC(=O)O)NC(=O)[C@H](Cc1cnc[nH]1)NC(=O)[C@H](CCSC)NC(=O)[C@@H](N)CC(=O)O)C(N)=O [NKB [MePhe7]] (H-DMHDFF[NMeF]GLM-NH2) |  | 0.16 | 0.34 | 0.053 | 0.43 |  |  |  | 
CC(C)(C(N)=O)C1CCN(CCC2(c3ccc(Cl)c(Cl)c3)CN(C(=O)Cc3cc(C(F)(F)F)cc(C(F)(F)F)c3)CCO2)CC1 (centres undefined) [SSR240600] | 71 | 544 | 206 | > 10000 | 21 | 1.07 nM and 1.15 nM | 24 | 0.23 | 34
